Values of other authors, collected in patent publication US20250319190A1, “APOE LIPOPROTEIN SYSTEMS” (Kisbee Therapeutics, Inc., priority 2022, published 2025).

How the values were obtained:
NPC1 models = conditions: cited from earlier work
NPC1 = conditions: administered directly to the CNS; cited from earlier work
[1] = system: mouse model of tauopathy with Parkinsonism; conditions: trehalose consumption; cited from earlier work
[2] = system: cellular model for Huntington's disease; conditions: in vitro treatment; cited from earlier work

| Compound | crossing of the blood-brain barrier (NPC1 models; mouse, in vivo) | CNS manifestations (NPC1 models; subcutaneously or intraperitoneally, very high doses) | efficacy (NPC1) | anxiety-related behavior [1] | motor function [1] | tau pathology [1] | polyglutamine aggregates and cell survival [2] |
| --- | --- | --- | --- | --- | --- | --- | --- |
| 2-hydroxypropyl-β-cyclodextrins [HPβCD] | does not cross the blood-brain barrier in significant amounts | can moderately impact CNS manifestations | far greater HPβCD efficacy at much lower doses |  |  |  |  |
| OC[C@H]1O[C@H](O[C@H]2O[C@H](CO)[C@@H](O)[C@H](O)[C@H]2O)[C@H](O)[C@@H](O)[C@@H]1O [trehalose] |  |  |  | Reduced anxiety-related behavior | improved motor function | decreased tau pathology | decreased polyglutamine aggregates and/or improved cell survival |
